Values after ≈ are worked out from the molar mass of the structure shown.
test: Solubility test of the compounds; assay type: physicochemical; conditions: water, 37 ℃, 24 h shaking, 40 rpm, HPLC; read-out: compound solubility

SMILES | solubility at 24 h
NC(=O)N1CCc2cc(N3C[C@H](CNC(=O)c4ccc(Cl)s4)OC3=O)sc2C1 [实施例3, (S)-2-(5-((5-氯噻吩-2-甲酰氨基)甲基)-2-氧代噁唑烷-3-基)-4,5-二氢噻吩并[2,3-c]吡啶-6(7H)-甲酰胺] | 260 µg/mL (≈ 590 µM)
CN1CCc2nc(N3C[C@H](CNC(=O)c4ccc(Cl)s4)OC3=O)sc2C1 [实施例5, (S)-5-氯-N-((3-(5-甲基-4,5,6,7-四氢噻唑[5,4-c]吡啶-2-基)-2-氧代噁唑烷-5-基)甲基)噻吩-2-甲酰胺] | 230 µg/mL (≈ 557 µM)
CN1CCc2cc(N3C[C@H](CNC(=O)c4ccc(Cl)s4)OC3=O)sc2C1 [实施例6] | 220 µg/mL (≈ 534 µM)
O=C(NC[C@H]1CN(c2sc3ccccc3c2Cl)C(=O)O1)c1ccc(Cl)s1 [实施例7, (S)-5-氯-N-((3-(3-氯苯并[b]噻吩-2-基)-2-氧代噁唑烷-5-基)甲基)噻吩-2-甲酰胺] | 80 µg/mL (≈ 187 µM)
CN1CCc2nc(C(=O)NCC3COC(=O)N3C(=O)Nc3ccc(Cl)cn3)sc2C1 (centres unmarked) [实施例8, N-(5-氯吡啶-2-基)-4-((5-甲基-4,5,6,7-四氢噻唑并[5,4-c]吡啶-2-甲酰氨基)甲基)-2-氧代噁唑烷-3-甲酰胺] | 150 µg/mL (≈ 333 µM)

Now from value to molecule:

solubility at 24 h | SMILES
240 µg/mL (≈ 544 µM) | NC(=O)N1CCc2sc(N3C[C@H](CNC(=O)c4ccc(Cl)s4)OC3=O)cc2C1 [实施例1, (S)-2-(5-((5-氯噻吩-2-甲酰氨基)甲基)-2-氧代噁唑烷-3-基)-6,7-二氢噻吩并[3,2-c]吡啶-5(4H)-甲酰胺]
110 µg/mL (≈ 250 µM) | CC(=O)N1CCc2sc(N3C[C@H](CNC(=O)c4ccc(Cl)s4)OC3=O)cc2C1 [实施例2, (S)-N-((3-(5-乙酰基-4,5,6,7-四氢噻吩并[3,2-c]吡啶-2-基)-2-氧代噁唑烷-5-基)甲基)-5-氯噻吩-2-甲酰胺]
130 µg/mL (≈ 295 µM) | CC(=O)N1CCc2cc(N3C[C@H](CNC(=O)c4ccc(Cl)s4)OC3=O)sc2C1 [实施例4, (S)-N-((3-(6-乙酰基-4,5,6,7-四氢噻吩并[2,3-c]吡啶-2-基)-2-氧代噁唑烷-5-基)甲基)-5-氯噻吩-2-甲酰胺]

From patent CN104497008A, “取代噁唑烷酮类化合物及其使用方法和用途” (priority 2014, dated 2015)
